# Assay results reported in patent US20240341337A1, “METHOD FOR CREATING MASKING COMPOSITIONS” (GIVAUDAN SA, priority 2021, published 2024).
# Tests used:
# [1] = Antagonist screening for pea protein off-notes on VAS aroma blending device, off-note Ex. B; parameters: key to Off-note Ex. B masking effect: +++ being most effective; ++ in the middle; + some effect; +/− being in between; − being no effect; conditions: off-note channel 2, 0.001% in MCT, flow 150; antagonist channel conc. as in Table 2 c2
# Method: (§1) In one embodiment, the screening step is carried out using the above described aroma blending device as follows: each off-note molecule(s) identified from a target non-animal derived protein may be loaded into its own individual cartridge or channel (for example, propyl-iso-2-methoxy-3-pyrazine may be loaded into cartridge/channel #1, and isobutyl-3-methoxy-2-pyrazine may be loaded into cartridge/channel #2, etc.); next, the target non-animal protein is diluted as will be discussed below and may be loaded into its own individual cartridge/channel, for example, cartridge/channel #6 to act as the control or base; next, each antagonist candidate molecule that has been identified may be loaded into its own individual cartridge/channel (for example, molasses distillate may be loaded into cartridge/channel #7 and bisabolene may be loaded into cartridge/channel #8, etc). Next, the gas flow on the off-note molecule containing cartridge/channel is first opened, followed by one of the antagonist candidate molecule containing cartridges/channels. The intensity of the flow of the antagonist candidate molecule containing cartridge/channel is adjusted until the off-note is canceled or neutralized by the antagonist candidate molecule, i.e neutralization concentration. This process is repeated for each antagonist candidate molecule containing cartridges/channels so that all of the potential antagonist candidate molecules are screened.
# (§2) Selection and screening of the antagonist molecules was performed using the VAS aroma blending device. As described above, each off-note molecule from Table 1 was loaded into its own individual cartridge or channel as shown in Table 2 (#'s 1-5). Each off-note molecule was diluted with medium-chain triglyceride (“MCT”) prior to loading into the cartridge/channel. Next, the target non-animal protein was diluted at 2% plus 0.1% xanthan gum in water with a small amount of antifoam agent (0.01%) and was placed into a cartridge/channel (#21). Each antagonist candidate molecule was then diluted with MCT in a pre-determined concentration and was loaded into a cartridge/channel as shown in Table 2 (#'s 6-20). Next, the gas flow (between 0 to 500 ml/min) on the off-note molecule containing cartridge/channel is first opened, followed by one of the antagonist candidate molecule containing cartridges/channels. The intensity of the flow of the antagonist candidate molecule containing cartridge/channel is adjusted until the off-note is canceled or neutralized by the antagonist candidate molecule, i.e neutralization concentration. This process is repeated for each antagonist candidate molecule containing cartridges/channels so that all of the potential antagonist candidate molecules are screened.
# (§3) The numeric number in the column refers the flow rate on VAS aroma blending device.
# [2] = Antagonist screening for pea protein off-notes on VAS aroma blending device, off-note Ex. C; parameters: key to Off-note Ex. C masking effect: +++ being most effective; ++ in the middle; + some effect; +/− being in between; − being no effect; conditions: off-note channel 3, 0.01% in MCT, flow 185; antagonist channel conc. as in Table 2 c2
# Method: as §1, §2, §3
# [3] = Antagonist screening for pea protein off-notes on VAS aroma blending device, off-note Ex. D; parameters: key to Off-note Ex. D masking effect: +++ being most effective; ++ in the middle; + some effect; +/− being in between; − being no effect; conditions: off-note channel 4, 0.10% in MCT, flow 15; antagonist channel conc. as in Table 2 c2
# Method: as §1, §2, §3
# [4] = Antagonist screening for pea protein off-notes on VAS aroma blending device, off-note Ex. A; parameters: key to Off-note Ex. A masking effect: +++ being most effective; ++ in the middle; + some effect; +/− being in between; − being no effect; conditions: off-note channel 1, 0.01% in MCT, flow 300; antagonist channel conc. as in Table 2 c2
# Method: as §1, §2, §3
# [5] = Antagonist screening for pea protein off-notes on VAS aroma blending device, off-note Ex. E; parameters: key to Off-note Ex. E masking effect: +++ being most effective; ++ in the middle; + some effect; +/− being in between; − being no effect; conditions: off-note channel 5, 1.0% in MCT, flow 150; antagonist channel conc. as in Table 2 c2
# Method: as §1, §2, §3
Molecule,Off-note Ex. B Flow Rate (antagonist channel) [1],Off-note Ex. B masking effect [1],Off-note Ex. C Flow Rate (antagonist channel) [2],Off-note Ex. C masking effect [2],Off-note Ex. D Flow Rate (antagonist channel) [3],Off-note Ex. D masking effect [3],Off-note Ex. A Flow Rate (antagonist channel) [4],Off-note Ex. A masking effect [4],Off-note Ex. E Flow Rate (antagonist channel) [5],Off-note Ex. E masking effect [5]
CCOC(=O)CCC(=O)OCC [Diethyl Succinate],300 mL/min,++,200 mL/min,+/−,200 mL/min,++,250 mL/min,++,,
CCCCCCCCCCCCCCCC(=O)OCC [Ethyl Palmitate],100 mL/min,,35 mL/min,++,,−,,−,300 mL/min,+
C=CCOC(=O)CCC1CCCCC1 [Ally1 Cyclohexyl Proprionate],,−,100 mL/min,+++,,−,165 mL/min,+/−,175 mL/min,++
Caryophyllene,,+,,−,150 mL/min,++,100 mL/min,+++,200 to 225 mL/min,+
Bisabolene,,−,,−,,−,,−,150 mL/min,+
CCOC(=O)C(C)O (stereo not drawn) [Ethyl lactate],100 mL/min,+++,200 mL/min,++,200 mL/min,++,90 mL/min,+++,,
